# Data: patent US20260335340A1, “PHARMACEUTICAL COMPOSITION FOR TREATING LIVER CANCER COMPRISING CANNABIDIOL AND ANTICANCER AGENT AS ACTIVE INGREDIENTS AND USE THEREOF” (NEOCANNBIO CO., LTD., priority 2022, published 2026)
# Where two headings read alike, the source gives them in different places.
# How the values were obtained:
# [1] = test system: apoptotic proteins; assay: Levels of apoptotic proteins in presence of Chk2 inhibitor; assay type: cell-based, human; conditions: with cabozantinib and CBD; FIG. 7B
# Text: (§1) Next, to determine whether Chk2 activated by combined treatment with cabozantinib and CBD affects apoptosis, the anti-apoptotic effect mediated by Chk2 inhibitors was confirmed.
# [2] = test system: p53; assay: Phosphorylation of p53 in presence of Chk2 inhibitor; assay type: cell-based, human; conditions: with cabozantinib and CBD; FIG. 7B
# Text: as §1
# [3] = test system: HepG2 cells; assay: Apoptotic effect of combined treatment in presence of Chk2 inhibitor; assay type: cell-based, human; conditions: with cabozantinib and CBD; FIG. 7A
# Text: as §1
# [4] = test system: HepG2 cells; assay: Combined treatment effect of cabozantinib with cannabis-related compounds (cell viability); assay type: cell-based; conditions: Homo sapiens, read-out: IC50 with Cabozantinib
# Description: (§2) Cells (1.0×10^4) were seeded in 96-well plates and cultured in a medium for 24 hours. The cultured cells were treated with various concentrations of CBD and/or cabozantinib, etc., for 48 hours, and then cell viability was measured using a WST-8 assay kit (Biomax, SEOUL, Korea).
# (§3) Specifically, HepG2 cells, a hepatoma cell line, were seeded at a concentration of 1×10^4 cells/well in a 96-well plate and cultured for 24 hours in an incubator at 37° C. and 10% CO2, then they were treated with cabozantinib at various concentrations and treated or not with cannabidiol (20 μM), and then cultured under the same conditions for 48 hours. After completion of the culture, 1/10 of the WST-8 solution (Quanti-Max™, BIOMAX, Korea) was added to the medium, and the culture was further conducted at 37° C. for 1 hour, the absorbance was measured at 450 nm to determine the cell viability, which was expressed as a ratio to the untreated control group. This experiment was conducted independently and repeated three times. Additionally, as positive control groups, sorafenib, lenvatinib, or regorafenib were treated instead of cabozantinib, respectively.
# [5] = test system: pCDH-CNR2 HepG2 cells; assay: Cell viability in CNR2 overexpressing HepG2 cells with or without CBD; assay type: cell-based; conditions: Homo sapiens
# Description: as §2
# (§4) Total RNA was extracted from normal liver tissues and cDNA was synthesized to clone a tagged CNR1 and CNR2 coding gene sequences into a pCDH-CMV-EF1-puro vector. The CNR1 and CNR2 genes were amplified by PCR using specific primers including 5′-extension and NotI (NEB, Ipswich, MA, USA) and XbaI (NEB) restriction sites. CloneAmp HiFi PCR Premix ([…], San Jose, CA, USA) was used for PCR reactions. Subsequently, amplicons were obtained from the PCR products by gel extraction, digested with NotI and XbaI enzymes, and cloned into the pCDH-CMV-EF1-puro vector using the In-Fusion® cloning system according to the manufacturer's instructions.
# (§5) HepG2 cells were transfected with pCDH-CMV-EF1-puro including the tagged CNR1 and CNR2 coding sequences together with gag-pol and VSV-G plasmids (plasmids 14887 and 8454, respectively; Addgene, Cambridge, MA, USA). […] To confirm the specificity and efficiency of CNR1 and CNR2 overexpression, mRNA expression levels were analyzed using RT-PCR. […]
# [6] = test system: tyrosine kinase c-Met; conditions: known; cited from earlier work
# [7] = test system: HepG2 cells; assay: Cell viability (WST-8) of anticancer agents with or without CBD; assay type: cell-based, human; conditions: for IC50: Homo sapiens, HepG2, 48 h
# Description: Human HCC cell lines (HepG2 and Hep3B) were purchased from the American Type Culture Collection (ATCC). The cell lines were cultured in MEM (Gibco, Carlsbad, MD, USA) and DMEM (Gibco) supplemented with 10% FBS (Gibco), 100 U/mL penicillin, and 100 µg/mL streptomycin, respectively.
# as §2, §3
# [8] = test system: pCDH-Ctrl HepG2 cells; assay: Cell viability in control vector (pCDH-Ctrl) HepG2 cells with or without CBD; assay type: cell-based; conditions: Homo sapiens
# Description: as §2, §4, §5
# [9] = test system: pCDH-CNR1 HepG2 cells; assay: Cell viability in CNR1 overexpressing HepG2 cells with or without CBD; assay type: cell-based; conditions: Homo sapiens
# Description: as §2, §4, §5
# [10] = test system: VEGFR2; conditions: known; cited from earlier work
# [11] = test system: HepG2 cells; assay: Inhibition of apoptosis by L-ascorbic acid; assay type: cell-based, human; conditions: ER stress induced by cabozantinib and CBD; FIG. 11
# Description: (§6) Next, the effect of L-ascorbic acid (LAA), known to alleviate ER stress, on the inhibition of P53 activation and apoptosis was investigated. As a result, it was confirmed that p53 activation and apoptosis caused by ER stress induced by combined treatment with cabozantinib and CBD were suppressed when LAA was treated (FIG. 11).
# [12] = test system: p53; assay: Inhibition of P53 activation by L-ascorbic acid; assay type: cell-based, human; conditions: ER stress induced by cabozantinib and CBD; FIG. 11
# Description: as §6
# [13] = HepG2, 48 h, combined with cabozantinib
# [14] = HepG2, read-out: IC50 without CBD
# [15] = with 20 μM CBD, read-out: IC50 with CBD
# [16] = without CBD, read-out: IC50 without CBD
structure (smiles),measurement,setting,value
NC(=O)c1ccc2nc(-c3ccc(Oc4ccc(Cl)cc4)cc3)[nH]c2c1 [BML-277],effect on levels of apoptotic proteins,[1],reduced
same,effect on phosphorylation of p53,[2],reduced the phosphorylation of p53
same,effect on the apoptotic effect of combined treatment,[3],inhibited the apoptotic effect
"C=C(C)[C@@H]1CCC(C)=C[C@H]1c1c(O)cc(CCCCC)c(C(=O)O)c1O [CBDA, cannabidiolic acid]",IC50,[4]; [13],35.9 ± 1.35 µM
COc1cc2nccc(Oc3ccc(NC(=O)C4(C(=O)Nc5ccc(F)cc5)CC4)cc3)c2cc1OC [Cabozantinib],IC50,"[5]; HepG2, read-out: IC50 with CBD",18.2 µM
same,IC50,[5]; [14],> 100 µM
same,inhibition of tyrosine kinase c-Met,[6],inhibit tyrosine kinase c-Met and VEGFR2
same,IC50,[7]; [15],15.8 µM
same,IC50,[7]; [16],> 100 µM
same,toxicity of cabozantinib against HepG2 cells when combine treated with cannabidiol,"[7]; vs cabozantinib alone, 20 μM CBD, 48 h, FIG. 4A",significantly increased
same,IC50,"[8]; HepG2, read-out: IC50 with CBD",16 µM
same,IC50,[8]; [14],> 100 µM
same,IC50,"[9]; HepG2, read-out: IC50 with CBD",20.2 µM
same,IC50,[9]; [14],> 100 µM
same,inhibition of VEGFR2,[10],inhibit tyrosine kinase c-Met and VEGFR2
"O=C1O[C@H]([C@@H](O)CO)C(O)=C1O [LAA, L-ascorbic acid]",effect on apoptosis caused by ER stress,[11],suppressed
same,effect on p53 activation caused by ER stress,[12],suppressed
COc1cc2nccc(Oc3ccc(NC(=O)NC4CC4)c(Cl)c3)c2cc1C(N)=O [Lenvatinib],IC50,[7]; [15],> 100 µM
same,IC50,[7]; [16],> 100 µM
CNC(=O)c1cc(Oc2ccc(NC(=O)Nc3ccc(Cl)c(C(F)(F)F)c3)c(F)c2)ccn1 [Regorafenib],IC50,[7]; [15],9.74 µM
same,IC50,[7]; [16],14.1 µM
CNC(=O)c1cc(Oc2ccc(NC(=O)Nc3ccc(Cl)c(C(F)(F)F)c3)cc2)ccn1 [Sorafenib],IC50,[7]; [15],9.24 µM
same,IC50,[7]; [16],14.6 µM
"CCCCCc1cc(O)c2c(c1)OC(C)(C)[C@@H]1CCC(C)=C[C@@H]21 [THC, tetrahydrocannabinol]",IC50,"[4]; HepG2, 48 h",23.9 ± 0.55 µM
CCCCCc1cc2c(c(O)c1C(=O)O)[C@@H]1C=C(C)CC[C@H]1C(C)(C)O2 [THCA],IC50,[4]; [13],30.4 ± 0.85 µM
